# Columns and labels:
# A549 = A549 wound healing inhibition (HGF dependent migration); assay type: cell-based; settings: Homo sapiens, A549 cells, read-out: A549 WOUND HEALING INHIB IC50
# Excerpt: (§1) HGF has well known activity in terms of inducing scattering and migration (wound healing) (Wells et al., Cell Motil Cytoskeleton. 2005 November 62(3):180-94; Miura et al., Urology 2001 December 58(6):1064-9; Nishimura et al., Int J Urol. 1998 May 5(3):276-81; Wang et al., Mol Cancer Ther. 2003 November; 2(11):1085-92; and Christensen et al., Cancer Res. 2003 Nov. 1; 63(21):7345-55).
# VEGF receptor KDR = molecular target: T1, VEGF receptor KDR (Homo sapiens, UniProt P35968); experiment: In vitro receptor tyrosine kinase assay (DELFIA), VEGF receptor KDR; assay type: biochemical; settings: read-out: VEGFR IC50
# T1 construct: made in house; host or cells: Sf9 cells (Spodoptera frugiperda), baculovirus
# T1 sequence (P35968 806-1356): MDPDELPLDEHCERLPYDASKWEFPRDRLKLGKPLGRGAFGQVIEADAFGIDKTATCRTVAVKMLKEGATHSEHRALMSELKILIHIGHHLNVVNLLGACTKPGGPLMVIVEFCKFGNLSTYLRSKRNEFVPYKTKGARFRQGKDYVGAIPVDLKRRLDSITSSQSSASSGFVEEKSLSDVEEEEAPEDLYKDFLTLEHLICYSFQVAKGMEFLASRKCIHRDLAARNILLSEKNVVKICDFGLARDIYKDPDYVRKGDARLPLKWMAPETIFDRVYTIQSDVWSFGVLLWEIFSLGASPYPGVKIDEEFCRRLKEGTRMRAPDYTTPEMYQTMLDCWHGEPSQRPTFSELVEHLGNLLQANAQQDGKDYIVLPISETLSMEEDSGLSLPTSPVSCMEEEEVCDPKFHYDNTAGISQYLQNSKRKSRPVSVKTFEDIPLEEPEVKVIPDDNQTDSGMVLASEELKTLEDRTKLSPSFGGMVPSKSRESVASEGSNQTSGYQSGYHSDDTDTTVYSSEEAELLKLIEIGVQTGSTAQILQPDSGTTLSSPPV
# Procedure: In the case of VEGF receptor KDR a 1.6-kb cDNA corresponding to the catalytic domain of VEGFR2 or KDR (Genbank accession number AF035121 amino acid 806 to 1356) was cloned into the Pst I site of the pDEST20 Gateway vector (Invitrogen) for the production of a GST-tagged version of that enzyme.
# The GST-VEGFR2806-1356 protein was expressed in […] (Spodoptera frugiperda) upon infection with recombinant baculovirus construct. […] Cell pellets were frozen at −80° C. until purification was performed.
# The supernatant (cell extract) was used as starting material for purification of GST-VEGFR2806-1356.
# The supernatant was loaded onto a GST-agarose column (Sigma) equilibrated with PBS pH 7.3. Following a four column volume (CV) wash with PBS pH 7.3+1% Triton X-100 and 4 CV wash with buffer B (50 mM Tris pH 8.0, 20% glycerol and 100 mM NaCl), bound proteins were step eluted with 5 CV of buffer B supplemented with 5 mM DTT and 15 mM glutathion. GST-VEGFR2806-1356 enriched fractions from this chromatography step were pooled based on U.V. trace i.e. fractions with high O.D.280. Final GST-VEGFR2806-1356 protein preparations concentrations were about 0.7 mg/ml with purity approximating 70%.
# (§2) The coated plates were washed and stored at 4° C. […] After incubation, the kinase reactions were quenched with EDTA and the plates were washed.
# DU145 = DU145 scattering inhibition (HGF dependent scattering); assay type: cell-based; settings: Homo sapiens, DU-145; HGF dependent scattering, DU145 cells; read-out: DU145 SCATTERING INHIB IC50
# Excerpt: as §1
# [1] = molecular target: T2, recombinant human c-Met/HGF receptor (Homo sapiens, UniProt P08581); experiment: In vitro receptor tyrosine kinase assay (DELFIA), c-Met/HGF receptor; assay type: biochemical; settings: read-out: CMET IC50
# T2 construct: His tag (pBlueBacHis2A vector); made in house; host or cells: Hi-5 cells (Trichoplusia ni), baculovirus
# T2 sequence (P08581 1078-1337): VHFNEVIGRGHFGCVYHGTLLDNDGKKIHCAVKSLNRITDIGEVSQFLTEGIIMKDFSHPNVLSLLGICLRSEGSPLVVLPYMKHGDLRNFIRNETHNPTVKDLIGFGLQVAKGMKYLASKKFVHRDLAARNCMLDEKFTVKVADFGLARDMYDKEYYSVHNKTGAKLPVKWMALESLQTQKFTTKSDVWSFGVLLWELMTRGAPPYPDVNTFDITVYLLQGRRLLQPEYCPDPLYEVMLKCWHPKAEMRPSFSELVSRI
# Procedure: Cell pellets were frozen at −80° C. until purification was performed.
# as §2
IC50 (A549) [nM],IC50 (VEGF receptor KDR) [nM],IC50 (DU145) [nM],IC50 [1] [nM],Compound
1000 to 5000,50 to 250,1000 to 5000,< 50,O=C(CC(=O)Nc1ccccc1F)Nc1ccc(Oc2ccnc3cc(-c4cccc(CN5CCOCC5)c4)sc23)c(F)c1
1000 to 5000,< 50,< 1000,< 50,Cn1cnc(-c2cc3nccc(Oc4ccc(NC(=O)N5CCN(C6CCCCC6)C5=O)cc4F)c3s2)c1
> 10000,> 500,> 10000,250 to 500,CN(C)NC(=O)c1cc2nccc(Oc3ccc(NC(=O)CC(=O)N(C)c4ccccc4)cc3F)c2s1
> 10000,50 to 250,1000 to 5000,50 to 250,COc1ccccc1NC(=O)CC(=O)Nc1ccc(Oc2ccnc3cc(-c4cccc(CN5CCOCC5)c4)sc23)c(F)c1
< 1000,< 50,< 1000,50 to 250,CN1CCN(CCN(C)Cc2cccc(-c3cc4nccc(Oc5ccc(NC(=O)CC(=O)N(C)c6ccccc6)cc5F)c4s3)c2)CC1
< 1000,< 50,< 1000,< 50,CNC(=O)N1CCN(Cc2ccc(-c3cc4nccc(Oc5ccc(NC(=O)N6CCN(c7ccccc7)C6=O)cc5F)c4s3)cc2)CC1
1000 to 5000,< 50,< 1000,< 50,CCCn1cnc(-c2cc3nccc(Oc4ccc(NC(=O)CC(=O)Nc5ccccc5OC)cc4F)c3s2)c1
< 1000,< 50,< 1000,50 to 250,CCn1cnc(-c2cc3nccc(Oc4ccc(NC(=O)CC(=O)NC5CCCCC5)cc4F)c3s2)c1
< 1000,< 50,< 1000,< 50,Cn1cnc(-c2cc3nccc(Oc4ccc(NC(=O)C5CCN(c6ccccc6)C5=O)cc4F)c3s2)c1 (centres unmarked)
< 1000,< 50,< 1000,< 50,CN(C)CCn1cnc(-c2cc3nccc(Oc4ccc(NC(=O)N5CCN(c6ccc(F)cc6)C5=O)cc4F)c3s2)c1
1000 to 5000,50 to 250,< 1000,50 to 250,CCn1cncc1-c1cc2nccc(Oc3ccc(NC(=O)CC(=O)Nc4ccccc4OC)cc3F)c2s1
< 1000,< 50,< 1000,< 50,O=C(Nc1ccc(Oc2ccnc3cc(-c4ccc(CN5CCNCC5)cc4)sc23)c(F)c1)N1CCN(c2ccccc2)C1=O
< 1000,< 50,< 1000,< 50,CN(C)CCn1cnc(-c2cc3nccc(Oc4ccc(NC(=O)C5(C(=O)Nc6ccccc6F)CC5)cc4F)c3s2)c1
1000 to 5000,< 50,< 1000,50 to 250,CCn1cnc(-c2cc3nccc(Oc4ccc(NC(=O)CC(=O)Nc5ccccc5C(F)(F)F)cc4F)c3s2)c1
1000 to 5000,50 to 250,< 1000,< 50,Cn1cnc(-c2cc3nccc(Oc4ccc(NC(=O)N5CCN(N6CCCCC6)C5=O)cc4F)c3s2)c1
1000 to 5000,< 50,1000 to 5000,< 50,CN1CCN(C(=O)CC(=O)Nc2ccc(Oc3ccnc4cc(-c5cn(C)cn5)sc34)c(F)c2)c2ccccc21
1000 to 5000,< 50,1000 to 5000,< 50,CCn1cnc(-c2cc3nccc(Oc4ccc(NC(=O)CC(=O)Nc5ccccc5O)cc4F)c3s2)c1
< 1000,< 50,< 1000,< 50,CCn1cc(-c2cc3nccc(Oc4ccc(NC(=O)CC(=O)Nc5ccccc5OC)cc4F)c3s2)nc1CN(C)C
> 10000,> 500,> 10000,250 to 500,CN(C(=O)CC(=O)Nc1ccc(Oc2ccnc3cc(C(=O)N(C)N(C)C)sc23)c(F)c1)c1ccccc1
1000 to 5000,< 50,< 1000,< 50,Cn1cnc(-c2cc3nccc(Oc4ccc(NC(=O)C5(C(=O)Nc6ccccc6F)CC5)cc4F)c3s2)c1

# The remaining lines, values behind:
Compound,IC50 (A549) [nM],IC50 (VEGF receptor KDR) [nM],IC50 (DU145) [nM],IC50 [1] [nM]
COc1ccccc1NC(=O)CC(=O)Nc1ccc(Oc2ccnc3cc(-c4cccc(OCCCNC(=N)N)c4)sc23)c(F)c1,1000 to 5000,> 500,> 10000,50 to 250
CN1CCN(Cc2ccc(-c3cc4nccc(Oc5ccc(NC(=O)C6CCN(c7ccccc7)C6=O)cc5F)c4s3)nc2)CC1 (centres unmarked),1000 to 5000,< 50,1000 to 5000,50 to 250
COCCNCc1ccc(-c2cc3nccc(Oc4ccc(NC(=O)N5CCN(c6ccc(F)cc6)C5=O)cc4F)c3s2)cc1,< 1000,< 50,< 1000,< 50
COc1ccccc1NC(=O)CC(Nc1ccc(Oc2ccnc3cc(-c4cn(C)cn4)sc23)c(F)c1)C(F)(F)F (centres unmarked),1000 to 5000,< 50,> 10000,> 500
CCN(C(=O)CC(=O)Nc1ccc(Oc2ccnc3cc(-c4cn(CC)cn4)sc23)c(F)c1)c1ccccc1,1000 to 5000,< 50,1000 to 5000,50 to 250
Cn1cncc1-c1cc2nccc(Oc3ccc(NC(=O)CC(=O)Nc4ccccc4O)cc3F)c2s1,> 10000,< 50,1000 to 5000,50 to 250
O=C(Nc1ccc(Oc2ccnc3cc(-c4cn(CCCN5CCCC5)cn4)sc23)c(F)c1)N1CCN(c2ccccc2F)C1=O,5000 to 10000,< 50,> 10000,50 to 250
CN1CCN(C(=O)C2(C(=O)Nc3ccc(Oc4ccnc5cc(-c6cn(C)cn6)sc45)c(F)c3)CC2)c2ccccc21,1000 to 5000,< 50,1000 to 5000,> 500
Cn1cnc(-c2cc3nccc(Oc4ccc(NC(=O)C5CCN(c6ccc(F)cc6)C5=O)cc4F)c3s2)c1 (centres unmarked),< 1000,< 50,< 1000,< 50
Cn1cnc(-c2cc3nccc(Oc4ccc(NC(=O)C5(C(=O)Nc6ccc(F)cc6)CC5)cc4F)c3s2)c1,< 1000,< 50,< 1000,< 50
CN1CCN(CCN(C)Cc2ccc(-c3cc4nccc(Oc5ccc(NC(=O)CC(=O)Nc6cccc(F)c6)cc5F)c4s3)cc2)CC1,1000 to 5000,< 50,1000 to 5000,50 to 250
Cn1cnc(-c2cc3nccc(Nc4ccc(NC(=O)C5(C(=O)Nc6ccc(F)cc6)CC5)cc4F)c3s2)c1,< 1000,< 50,< 1000,< 50
O=C(CC(=O)Nc1ccc(Oc2ccnc3cc(-c4cccc[n+]4[O-])sc23)c(F)c1)Nc1ccccc1,< 1000,< 50,< 1000,< 50
COc1ccccc1NC(=O)CC(=O)Nc1ccc(Oc2ccnc3cc(-c4ccc(CN5CCCC5)cc4)sc23)c(F)c1 [drawing 295],1000 to 5000,< 50,< 1000,50 to 250
Cn1cnc(-c2cc3nccc(Oc4ccc(NC(=O)C5(C)CCN(c6ccccc6)C5=O)cc4F)c3s2)c1 (centres unmarked),1000 to 5000,250 to 500,1000 to 5000,50 to 250
O=C1N(C(=S)Nc2ccc(Oc3ccnc4cc(-c5cn(CCN6CCCC6)cn5)sc34)c(F)c2)CCN1c1ccc(F)cc1,< 1000,< 50,< 1000,< 50
COc1ccccc1NC(=O)CC(=O)Nc1ccc(Oc2ccnc3cc(N4CCCC4=O)sc23)c(F)c1,< 1000,50 to 250,< 1000,50 to 250
CN1CCN(CCN(C)Cc2ccc(-c3cc4nccc(Oc5ccc(NC(=O)CC(=O)Nc6ccccc6)cc5F)c4s3)cc2)CC1 [drawing 351],< 1000,< 50,< 1000,< 50
CN(C(=O)CC(=O)Nc1ccc(Oc2ccnc3cc(-c4cn(C)cn4)sc23)c(F)c1)c1ccccc1,< 1000,< 50,< 1000,50 to 250
Cn1cnc(-c2cc3nccc(Oc4ccc(NC(CC(=O)Nc5ccc(F)cc5)C(F)(F)F)cc4)c3s2)c1 (centres unmarked),1000 to 5000,< 50,1000 to 5000,50 to 250
CN(C)CC/C=C\c1cc2nccc(Oc3ccc(NC(=O)CC(=O)N(C)c4ccccc4)cc3F)c2s1,1000 to 5000,50 to 250,1000 to 5000,50 to 250

# — patent US8329726B2, “Inhibitors of VEGF receptor and HGF receptor signaling” (MethylGene Inc., priority 2005, dated 2012)
